Laboratory results as given in ChEMBL document CHEMBL5634130, “Exploring the structural-activity relationship of hexahydropyrazino[1,2-d]pyrido[3,2-b][1,4]oxazine derivatives as potent and orally-bioavailable PARP7 inhibitors” (Eur J Med Chem, 2023).
Activity calls are given as the source filed them. The rule behind the calls is not given here.

Experiments:
NCI-H1373 [1] = assay: Antiproliferative activity against human NCI-H1373 cells assessed as inhibition of cell viability incubated for 4 days by luminescence based assay; conditions: NCI-H1373, 96 h
[2] = target: T1, Protein mono-ADP-ribosyltransferase TIPARP (Homo sapiens, UniProt Q7Z3E1); assay: Inhibition of PARP7 (unknown origin) using histone as substrate incubated for 1 hr by chemiluminescence assay
T1 sequence (Q7Z3E1 whole entry): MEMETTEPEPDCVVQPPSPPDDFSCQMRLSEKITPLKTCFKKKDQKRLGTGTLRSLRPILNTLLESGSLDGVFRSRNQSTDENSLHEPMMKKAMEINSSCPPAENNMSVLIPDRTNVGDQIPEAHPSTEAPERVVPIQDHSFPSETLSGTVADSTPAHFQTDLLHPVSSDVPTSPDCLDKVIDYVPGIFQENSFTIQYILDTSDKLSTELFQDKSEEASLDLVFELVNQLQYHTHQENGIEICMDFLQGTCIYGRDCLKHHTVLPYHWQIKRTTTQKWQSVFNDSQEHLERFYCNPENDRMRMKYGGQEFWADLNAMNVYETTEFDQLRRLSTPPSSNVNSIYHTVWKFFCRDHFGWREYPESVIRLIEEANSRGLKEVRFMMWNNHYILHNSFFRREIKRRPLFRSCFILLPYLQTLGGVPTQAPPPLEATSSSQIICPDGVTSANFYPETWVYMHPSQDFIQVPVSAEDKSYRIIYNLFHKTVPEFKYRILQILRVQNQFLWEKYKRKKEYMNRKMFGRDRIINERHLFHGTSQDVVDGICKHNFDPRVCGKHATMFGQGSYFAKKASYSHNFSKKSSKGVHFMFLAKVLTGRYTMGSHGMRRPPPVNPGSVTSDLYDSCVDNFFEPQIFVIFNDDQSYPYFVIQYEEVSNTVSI

[3] = Half life in fasted ICR mouse at 2 mg/kg, iv measured for 24 hrs by LC-MS analysis; format: ADME, organism-based; conditions: in vivo
[4] = Volume of distribution at steady state in fasted ICR mouse at 2 mg/kg, iv measured for 24 hrs by LC-MS analysis; format: ADME, organism-based; conditions: in vivo, read-out: Vdss
[5] = AUC in fasted ICR mouse at 2 mg/kg, iv measured for 24 hrs by LC-MS analysis; format: ADME, organism-based; conditions: in vivo
[6] = Tmax in fasted ICR mouse at 10 mg/kg, po measured for 24 hrs by LC-MS analysis; format: ADME, organism-based; conditions: in vivo
[7] = Cmax in fasted ICR mouse at 10 mg/kg, po measured for 24 hrs by LC-MS analysis; format: ADME, organism-based; conditions: in vivo
[8] = AUC in fasted ICR mouse at 10 mg/kg, po measured for 24 hrs by LC-MS analysis; format: ADME, organism-based; conditions: in vivo
[9] = Oral bioavailability in fasted ICR mouse at 10 mg/kg measured for 24 hrs by LC-MS analysis; format: ADME, organism-based; conditions: in vivo
MDA-MB-436 = assay: Antiproliferative activity against human MDA-MB-436 cells assessed as inhibition of cell viability at 0.1 uM incubated for 7 days by luminescence based assay; format: functional; conditions: time 7.0 day
[10] = Half life in fasted ICR mouse at 10 mg/kg, po measured for 24 hrs by LC-MS analysis; format: ADME, organism-based; conditions: in vivo
[11] = Clearance in fasted ICR mouse at 2 mg/kg, iv measured for 24 hrs by LC-MS analysis; format: ADME, organism-based; conditions: in vivo
RAW264.7 = assay: Inhibition of PARP7 in mouse RAW264.7 cells assessed as increase in IFN-beta level incubated for 24 hrs by ELISA; format: cell-based
[12] = Toxicity in […] SCID mouse model xenografted with human NCI-H1373 cells assessed as animal death at 30 mg/kg, po measured for 21 days; format: organism-based; conditions: in vivo, 504 h, time 21 day
NCI-H1373 [13] = assay: Antitumor activity against human NCI-H1373 cells xenografted in […] SCID mouse model assessed as tumor growth inhibition at 30 mg/kg, po administered everyday measured after 21 days relative to control; format: functional; conditions: NCI-H1373, 504 h, time 21 day, read-out: TGI
[14] = Toxicity in […] SCID mouse model xenografted with human NCI-H1373 cells assessed as body weight loss at 30 mg/kg, po measured for 21 days; format: organism-based; conditions: in vivo, 504 h, time 21 day

C[C@@H](COc1cnc(N2CCN3c4ncc(C(F)(F)F)cc4OC[C@@H]3C2)nc1)Nc1cn[nH]c(=O)c1C(F)(F)F
IC50 (NCI-H1373 [1]): 1950 nM

C[C@@H](COCCC(=O)N1CCN2c3ncc(Cl)cc3OCC2C1)Nc1cn[nH]c(=O)c1C(F)(F)F (some centres undefined)
IC50 (NCI-H1373 [1]): 106 nM

C[C@@H](CN1CC(C(=O)N2CCN3c4ncc(C(F)(F)F)cc4OC[C@@H]3C2)C1)Nc1cn[nH]c(=O)c1C(F)(F)F
IC50 (NCI-H1373 [1]): > 3000 nM

C[C@@H](COCCC(=O)N1CCN2c3ncc(C(F)(F)F)cc3OC[C@H]2C1)Nc1cn[nH]c(=O)c1C(F)(F)F
IC50 [2]: 3.3 nM | IC50 (NCI-H1373 [1]): 85 nM

O=C(CCOC[C@@H]1CCN1c1cn[nH]c(=O)c1C(F)(F)F)N1CCN2c3ncc(Cl)cc3OC[C@@H]2C1
half-life [3]: 36 min | Vd [4]: 0.638 L/kg | AUC at 24 h [5]: 421 ng·h/mL | Tmax [6]: 15 min | IC50 [2]: 0.66 nM | Cmax [7]: 400 ng/mL | AUC [8]: 544 ng·h/mL | bioavailability [9]: 25.8% | Activity (MDA-MB-436): inactive | t1/2 [10]: 126 min | clearance [11]: 49.4 mL/min/kg | IC50 (NCI-H1373 [1]): 14.8 nM | inhibition (RAW264.7): Active

CC(COCCC(=O)N1CCN2c3ncc(C(F)(F)F)cc3OC[C@@H]2C1)Nc1cn[nH]c(=O)c1C(F)(F)F (mixture of isomers)
IC50 [2]: 9.4 nM | IC50 (NCI-H1373 [1]): 156 nM

C[C@@H](COCCC(=O)N1CCN2c3ncc(C#N)cc3OCC2C1)Nc1cn[nH]c(=O)c1C(F)(F)F (some centres undefined)
IC50 (NCI-H1373 [1]): 255 nM

O=C(CCOC[C@@H]1CCCN1c1cn[nH]c(=O)c1C(F)(F)F)N1CCN2c3ncc(C(F)(F)F)cc3OC[C@@H]2C1
IC50 [2]: 13.8 nM | IC50 (NCI-H1373 [1]): 310 nM

C[C@@H](COCCC(=O)N1CCN2c3ncc(C(F)(F)F)cc3OC[C@@H]2C1)Oc1cn[nH]c(=O)c1C(F)(F)F
half-life [3]: 102 min | Vd [4]: 0.668 L/kg | AUC at 24 h [5]: 682 ng·h/mL | Tmax [6]: 15 min | IC50 [2]: 1.75 nM | Activity [12]: Non-Toxic | Cmax [7]: 1840 ng/mL | AUC [8]: 1835 ng·h/mL | bioavailability [9]: 53.9% | Activity (MDA-MB-436): inactive | t1/2 [10]: 264 min | inhibition in vivo at 30 mg/kg (NCI-H1373 [13]): 62.4% | clearance [11]: 50.6 mL/min/kg | IC50 (NCI-H1373 [1]): 15 nM | Activity [14]: Non-Toxic | inhibition (RAW264.7): Active

CC(COCCC(=O)N1CCN2c3ncc(C(F)(F)F)cc3OC[C@H]2C1)Nc1cn[nH]c(=O)c1C(F)(F)F (mixture of isomers)
IC50 [2]: 12.8 nM | IC50 (NCI-H1373 [1]): 180 nM

O=C(CCOCC1CCN1c1cn[nH]c(=O)c1C(F)(F)F)N1CCN2c3ncc(C(F)(F)F)cc3OC[C@@H]2C1 (some centres undefined)
IC50 [2]: 0.71 nM | IC50 (NCI-H1373 [1]): 6 nM

O=C(CCOC1CC(Nc2cn[nH]c(=O)c2C(F)(F)F)C1)N1CCN2c3ncc(C(F)(F)F)cc3OC[C@@H]2C1 (some centres undefined)
IC50 [2]: 63 nM | IC50 (NCI-H1373 [1]): 398 nM

CC(COC[C@H](C)Nc1cn[nH]c(=O)c1C(F)(F)F)C(=O)N1CCN2c3ncc(C(F)(F)F)cc3OC[C@@H]2C1 (some centres undefined)
IC50 (NCI-H1373 [1]): 973 nM

C[C@@H](COCCC(=O)N1CCN2c3ncc(F)cc3OCC2C1)Nc1cn[nH]c(=O)c1C(F)(F)F (some centres undefined)
IC50 (NCI-H1373 [1]): 694 nM

C[C@@H](COCCC(=O)N1CCN2c3ncc(C(F)(F)F)cc3OC[C@@H]2C1)Nc1cn[nH]c(=O)c1C(F)(F)F
half-life [3]: 30 min | Vd [4]: 0.104 L/kg | AUC at 24 h [5]: 274 ng·h/mL | Tmax [6]: 15 min | IC50 [2]: 1.86 nM | Cmax [7]: 408 ng/mL | AUC [8]: 306 ng·h/mL | bioavailability [9]: 22.3% | t1/2 [10]: 120 min | clearance [11]: 61 mL/min/kg | IC50 (NCI-H1373 [1]): 77 nM

C[C@@H](COCCC(=O)N1CCN2c3ncc(C(F)(F)F)cc3OCC2C1)Nc1cn[nH]c(=O)c1C(F)(F)F (mixture of isomers)
IC50 [2]: 2.1 nM | IC50 (NCI-H1373 [1]): 88 nM

C[C@@H](CN1CCC(C(=O)N2CCN3c4ncc(C(F)(F)F)cc4OC[C@@H]3C2)C1)Nc1cn[nH]c(=O)c1C(F)(F)F (some centres undefined)
IC50 (NCI-H1373 [1]): 908 nM

Cc1cnc2c(c1)OCC1CN(C(=O)CCOC[C@H](C)Nc3cn[nH]c(=O)c3C(F)(F)F)CCN21 (some centres undefined)
IC50 (NCI-H1373 [1]): 954 nM

CC(COCCC(=O)N1CCN2c3ncc(C(F)(F)F)cc3OCC2C1)Nc1cn[nH]c(=O)c1C(F)(F)F (racemic)
IC50 [2]: 10.3 nM | IC50 (NCI-H1373 [1]): 175 nM
